Results: PubChem BioAssay (NCI)
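Method: 48-hour compound exposure of cells in 96-well plates, five concentrations, linear interpolation of endpoints. TGI: concentration producing complete growth inhibition.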

system: UACC-257 melanoma; test: growth of human tumour cells (NCI), 48 h

Structure (SMILES) | TGI [µM]
Cc1ccn2c(c1)nc1nc3ccccc3nc12 | > 100
O=c1cc(-c2ccc(F)cc2)[nH]c2ncc(Cl)cc12 | > 100
COC1C=CC(O)C(CO)O1 (configuration not stated) | > 100

system: SR leukemia; test: growth of human tumour cells (NCI), 48 h

Structure (SMILES) | TGI [µM]
O=C(Cc1ccccc1)NN1C(=O)C(Cl)C1c1cc(Br)ccc1O (configuration not stated) | > 100
N#CC(NNC(=O)Cc1ccccc1)c1c(O)ccc2ccccc12 (configuration not stated) | 38.3
Cc1ccn2c(c1)nc1nc3ccccc3nc12 | > 100
O=c1cc(-c2ccc(F)cc2)[nH]c2ncc(Cl)cc12 | 23.7
COC1C=CC(O)C(CO)O1 (configuration not stated) | > 100

system: OVCAR-5 ovarian; test: growth of human tumour cells (NCI), 48 h

Structure (SMILES) | TGI [µM]
O=C(Cc1ccccc1)NN1C(=O)C(Cl)C1c1cc(Br)ccc1O (configuration not stated) | > 100
Cc1cc(Cl)ccc1N=C1NC(=O)C(CC(=O)Nc2ccc([N+](=O)[O-])cc2[N+](=O)[O-])S1 (configuration not stated) | 86.8
N#CC(NNC(=O)Cc1ccccc1)c1c(O)ccc2ccccc12 (configuration not stated) | > 43.5
COc1cc(C2C(Cl)C(=O)N2NC(=O)c2ccc(NC(C)=O)cc2)cc(OC)c1OC (configuration not stated) | > 100
Cc1ccn2c(c1)nc1nc3ccccc3nc12 | > 100
O=c1cc(-c2ccc(F)cc2)[nH]c2ncc(Cl)cc12 | > 100
COC1C=CC(O)C(CO)O1 (configuration not stated) | > 100

system: DU-145 prostate; test: growth of human tumour cells (NCI), 48 h

Structure (SMILES) | TGI [µM]
N#CC(NNC(=O)Cc1ccccc1)c1c(O)ccc2ccccc12 (configuration not stated) | > 63.2
O=c1cc(-c2ccc(F)cc2)[nH]c2ncc(Cl)cc12 | > 74.4

system: DMS 273 small cell lung; test: growth of human tumour cells (NCI), 48 h

Structure (SMILES) | TGI [µM]
O=C(Cc1ccccc1)NN1C(=O)C(Cl)C1c1cc(Br)ccc1O (configuration not stated) | > 100
Cc1cc(Cl)ccc1N=C1NC(=O)C(CC(=O)Nc2ccc([N+](=O)[O-])cc2[N+](=O)[O-])S1 (configuration not stated) | 82.7
N#CC(NNC(=O)Cc1ccccc1)c1c(O)ccc2ccccc12 (configuration not stated) | 19.1
Cc1ccn2c(c1)nc1nc3ccccc3nc12 | > 100

system: SK-MEL-5 melanoma; test: growth of human tumour cells (NCI), 48 h

Structure (SMILES) | TGI [µM]
O=C(Cc1ccccc1)NN1C(=O)C(Cl)C1c1cc(Br)ccc1O (configuration not stated) | > 100
Cc1cc(Cl)ccc1N=C1NC(=O)C(CC(=O)Nc2ccc([N+](=O)[O-])cc2[N+](=O)[O-])S1 (configuration not stated) | 31.1
N#CC(NNC(=O)Cc1ccccc1)c1c(O)ccc2ccccc12 (configuration not stated) | 15.7
COc1cc(C2C(Cl)C(=O)N2NC(=O)c2ccc(NC(C)=O)cc2)cc(OC)c1OC (configuration not stated) | > 100
Cc1ccn2c(c1)nc1nc3ccccc3nc12 | > 100
O=c1cc(-c2ccc(F)cc2)[nH]c2ncc(Cl)cc12 | > 100
COC1C=CC(O)C(CO)O1 (configuration not stated) | > 100

system: SW-620 colon; test: growth of human tumour cells (NCI), 48 h

Structure (SMILES) | TGI [µM]
O=C(Cc1ccccc1)NN1C(=O)C(Cl)C1c1cc(Br)ccc1O (configuration not stated) | > 100
Cc1cc(Cl)ccc1N=C1NC(=O)C(CC(=O)Nc2ccc([N+](=O)[O-])cc2[N+](=O)[O-])S1 (configuration not stated) | > 100
N#CC(NNC(=O)Cc1ccccc1)c1c(O)ccc2ccccc12 (configuration not stated) | > 100
COc1cc(C2C(Cl)C(=O)N2NC(=O)c2ccc(NC(C)=O)cc2)cc(OC)c1OC (configuration not stated) | > 100
Cc1ccn2c(c1)nc1nc3ccccc3nc12 | > 100
O=c1cc(-c2ccc(F)cc2)[nH]c2ncc(Cl)cc12 | > 100
COC1C=CC(O)C(CO)O1 (configuration not stated) | > 100

system: A498 renal; test: growth of human tumour cells (NCI), 48 h

Structure (SMILES) | TGI [µM]
Cc1cc(Cl)ccc1N=C1NC(=O)C(CC(=O)Nc2ccc([N+](=O)[O-])cc2[N+](=O)[O-])S1 (configuration not stated) | 51.5
N#CC(NNC(=O)Cc1ccccc1)c1c(O)ccc2ccccc12 (configuration not stated) | > 72.5
O=c1cc(-c2ccc(F)cc2)[nH]c2ncc(Cl)cc12 | 53.6

system: NCI-H460 lung; test: growth of human tumour cells (NCI), 48 h

Structure (SMILES) | TGI [µM]
O=C(Cc1ccccc1)NN1C(=O)C(Cl)C1c1cc(Br)ccc1O (configuration not stated) | > 100
Cc1cc(Cl)ccc1N=C1NC(=O)C(CC(=O)Nc2ccc([N+](=O)[O-])cc2[N+](=O)[O-])S1 (configuration not stated) | 84.9
N#CC(NNC(=O)Cc1ccccc1)c1c(O)ccc2ccccc12 (configuration not stated) | > 77.5
COc1cc(C2C(Cl)C(=O)N2NC(=O)c2ccc(NC(C)=O)cc2)cc(OC)c1OC (configuration not stated) | > 100
Cc1ccn2c(c1)nc1nc3ccccc3nc12 | > 100
O=c1cc(-c2ccc(F)cc2)[nH]c2ncc(Cl)cc12 | > 100
COC1C=CC(O)C(CO)O1 (configuration not stated) | > 100

system: NCI-H226 lung; test: growth of human tumour cells (NCI), 48 h

Structure (SMILES) | TGI [µM]
O=C(Cc1ccccc1)NN1C(=O)C(Cl)C1c1cc(Br)ccc1O (configuration not stated) | 69.7
N#CC(NNC(=O)Cc1ccccc1)c1c(O)ccc2ccccc12 (configuration not stated) | 47.3
COc1cc(C2C(Cl)C(=O)N2NC(=O)c2ccc(NC(C)=O)cc2)cc(OC)c1OC (configuration not stated) | > 100
Cc1ccn2c(c1)nc1nc3ccccc3nc12 | > 100
O=c1cc(-c2ccc(F)cc2)[nH]c2ncc(Cl)cc12 | > 56

system: NCI-H23 lung; test: growth of human tumour cells (NCI), 48 h

Structure (SMILES) | TGI [µM]
O=C(Cc1ccccc1)NN1C(=O)C(Cl)C1c1cc(Br)ccc1O (configuration not stated) | 53.3
Cc1cc(Cl)ccc1N=C1NC(=O)C(CC(=O)Nc2ccc([N+](=O)[O-])cc2[N+](=O)[O-])S1 (configuration not stated) | 51.8
N#CC(NNC(=O)Cc1ccccc1)c1c(O)ccc2ccccc12 (configuration not stated) | 37.8
COc1cc(C2C(Cl)C(=O)N2NC(=O)c2ccc(NC(C)=O)cc2)cc(OC)c1OC (configuration not stated) | > 100
Cc1ccn2c(c1)nc1nc3ccccc3nc12 | > 100
O=c1cc(-c2ccc(F)cc2)[nH]c2ncc(Cl)cc12 | > 100
COC1C=CC(O)C(CO)O1 (configuration not stated) | > 100

system: HL-60(TB) leukemia; test: growth of human tumour cells (NCI), 48 h

Structure (SMILES) | TGI [µM]
O=C(Cc1ccccc1)NN1C(=O)C(Cl)C1c1cc(Br)ccc1O (configuration not stated) | 13.6
N#CC(NNC(=O)Cc1ccccc1)c1c(O)ccc2ccccc12 (configuration not stated) | > 46
COc1cc(C2C(Cl)C(=O)N2NC(=O)c2ccc(NC(C)=O)cc2)cc(OC)c1OC (configuration not stated) | > 100
Cc1ccn2c(c1)nc1nc3ccccc3nc12 | > 100
O=c1cc(-c2ccc(F)cc2)[nH]c2ncc(Cl)cc12 | 15.3
COC1C=CC(O)C(CO)O1 (configuration not stated) | > 100

system: HT29 colon; test: growth of human tumour cells (NCI), 48 h

Structure (SMILES) | TGI [µM]
O=C(Cc1ccccc1)NN1C(=O)C(Cl)C1c1cc(Br)ccc1O (configuration not stated) | > 100
Cc1cc(Cl)ccc1N=C1NC(=O)C(CC(=O)Nc2ccc([N+](=O)[O-])cc2[N+](=O)[O-])S1 (configuration not stated) | > 100
N#CC(NNC(=O)Cc1ccccc1)c1c(O)ccc2ccccc12 (configuration not stated) | 62.1
COc1cc(C2C(Cl)C(=O)N2NC(=O)c2ccc(NC(C)=O)cc2)cc(OC)c1OC (configuration not stated) | > 100
Cc1ccn2c(c1)nc1nc3ccccc3nc12 | > 100
O=c1cc(-c2ccc(F)cc2)[nH]c2ncc(Cl)cc12 | > 100
COC1C=CC(O)C(CO)O1 (configuration not stated) | > 100

system: SF-295 CNS; test: growth of human tumour cells (NCI), 48 h

Structure (SMILES) | TGI [µM]
O=C(Cc1ccccc1)NN1C(=O)C(Cl)C1c1cc(Br)ccc1O (configuration not stated) | 94.3
Cc1cc(Cl)ccc1N=C1NC(=O)C(CC(=O)Nc2ccc([N+](=O)[O-])cc2[N+](=O)[O-])S1 (configuration not stated) | 59.5
N#CC(NNC(=O)Cc1ccccc1)c1c(O)ccc2ccccc12 (configuration not stated) | 40.2
COc1cc(C2C(Cl)C(=O)N2NC(=O)c2ccc(NC(C)=O)cc2)cc(OC)c1OC (configuration not stated) | > 100
Cc1ccn2c(c1)nc1nc3ccccc3nc12 | > 100
O=c1cc(-c2ccc(F)cc2)[nH]c2ncc(Cl)cc12 | 78.5
COC1C=CC(O)C(CO)O1 (configuration not stated) | > 100

system: SK-MEL-28 melanoma; test: growth of human tumour cells (NCI), 48 h

Structure (SMILES) | TGI [µM]
O=C(Cc1ccccc1)NN1C(=O)C(Cl)C1c1cc(Br)ccc1O (configuration not stated) | > 100
Cc1cc(Cl)ccc1N=C1NC(=O)C(CC(=O)Nc2ccc([N+](=O)[O-])cc2[N+](=O)[O-])S1 (configuration not stated) | > 100
N#CC(NNC(=O)Cc1ccccc1)c1c(O)ccc2ccccc12 (configuration not stated) | 97.7
COc1cc(C2C(Cl)C(=O)N2NC(=O)c2ccc(NC(C)=O)cc2)cc(OC)c1OC (configuration not stated) | > 100
Cc1ccn2c(c1)nc1nc3ccccc3nc12 | > 100
O=c1cc(-c2ccc(F)cc2)[nH]c2ncc(Cl)cc12 | > 100
COC1C=CC(O)C(CO)O1 (configuration not stated) | > 100

system: A549 NSCLC; test: growth of human tumour cells (NCI), 48 h

Structure (SMILES) | TGI [µM]
O=C(Cc1ccccc1)NN1C(=O)C(Cl)C1c1cc(Br)ccc1O (configuration not stated) | > 100
Cc1cc(Cl)ccc1N=C1NC(=O)C(CC(=O)Nc2ccc([N+](=O)[O-])cc2[N+](=O)[O-])S1 (configuration not stated) | 85.9
N#CC(NNC(=O)Cc1ccccc1)c1c(O)ccc2ccccc12 (configuration not stated) | 44.1
COc1cc(C2C(Cl)C(=O)N2NC(=O)c2ccc(NC(C)=O)cc2)cc(OC)c1OC (configuration not stated) | > 100
Cc1ccn2c(c1)nc1nc3ccccc3nc12 | > 100
O=c1cc(-c2ccc(F)cc2)[nH]c2ncc(Cl)cc12 | > 100
COC1C=CC(O)C(CO)O1 (configuration not stated) | > 100

system: ACHN renal; test: growth of human tumour cells (NCI), 48 h

Structure (SMILES) | TGI [µM]
O=C(Cc1ccccc1)NN1C(=O)C(Cl)C1c1cc(Br)ccc1O (configuration not stated) | > 100
